# Measured values: article PMC2358886, “Evolution of pharmacologic specificity in the pregnane X receptor” (BMC Evolutionary Biology, 2008)
# Read-outs that look alike come from different tables or passages of the source.
# Tests used:
# mouse PXR = target: T1, mouse PXR (Mus musculus, UniProt O54915)
# T1 sequence (O54915 1-431): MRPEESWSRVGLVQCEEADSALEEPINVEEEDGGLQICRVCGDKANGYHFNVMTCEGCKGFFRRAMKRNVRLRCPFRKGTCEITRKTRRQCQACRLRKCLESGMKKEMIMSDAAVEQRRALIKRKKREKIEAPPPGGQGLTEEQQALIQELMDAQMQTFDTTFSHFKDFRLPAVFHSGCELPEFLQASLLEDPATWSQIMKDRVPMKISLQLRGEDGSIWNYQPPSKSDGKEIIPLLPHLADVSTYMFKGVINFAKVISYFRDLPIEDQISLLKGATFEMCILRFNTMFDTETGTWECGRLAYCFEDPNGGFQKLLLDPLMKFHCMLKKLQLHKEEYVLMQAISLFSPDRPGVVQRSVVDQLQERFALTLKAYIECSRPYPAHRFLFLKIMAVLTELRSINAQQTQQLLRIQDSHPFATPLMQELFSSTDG
# rat PXR [1] = target: T2, rat PXR (Rattus norvegicus, UniProt Q9R1A7)
# T2 sequence (Q9R1A7 1-431): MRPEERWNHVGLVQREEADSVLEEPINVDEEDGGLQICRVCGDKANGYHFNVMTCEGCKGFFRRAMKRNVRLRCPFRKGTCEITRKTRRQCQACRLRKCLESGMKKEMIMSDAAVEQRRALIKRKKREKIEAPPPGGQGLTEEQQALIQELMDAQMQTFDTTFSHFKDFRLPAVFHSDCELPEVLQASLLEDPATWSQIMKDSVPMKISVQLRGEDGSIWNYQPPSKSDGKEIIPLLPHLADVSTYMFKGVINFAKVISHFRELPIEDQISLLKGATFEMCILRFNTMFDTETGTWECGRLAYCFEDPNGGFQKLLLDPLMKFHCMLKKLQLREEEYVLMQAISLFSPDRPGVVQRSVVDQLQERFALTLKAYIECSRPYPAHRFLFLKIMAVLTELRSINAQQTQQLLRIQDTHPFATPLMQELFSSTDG
# rabbit PXR [2] = target: T3, rabbit PXR (Oryctolagus cuniculus, UniProt Q9TU02)
# T3 sequence (Q9TU02 1-411): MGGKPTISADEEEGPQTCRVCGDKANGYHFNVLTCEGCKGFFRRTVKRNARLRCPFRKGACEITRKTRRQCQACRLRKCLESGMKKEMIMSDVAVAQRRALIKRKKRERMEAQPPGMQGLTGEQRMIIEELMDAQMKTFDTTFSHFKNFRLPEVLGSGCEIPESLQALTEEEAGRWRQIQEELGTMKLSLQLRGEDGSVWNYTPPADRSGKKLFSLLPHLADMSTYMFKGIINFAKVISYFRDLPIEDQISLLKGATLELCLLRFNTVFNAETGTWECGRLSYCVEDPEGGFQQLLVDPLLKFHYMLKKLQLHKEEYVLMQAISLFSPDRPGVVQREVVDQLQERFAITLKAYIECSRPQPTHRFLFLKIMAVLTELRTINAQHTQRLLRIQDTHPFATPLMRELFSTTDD
# chicken PXR [3] = target: T4, chicken PXR (Gallus gallus, UniProt Q9DFH3); conditions: for Chicken PXR Activity: -log(EC50), EC50 in molar units
# T4 sequence (Q9DFH3 1-391): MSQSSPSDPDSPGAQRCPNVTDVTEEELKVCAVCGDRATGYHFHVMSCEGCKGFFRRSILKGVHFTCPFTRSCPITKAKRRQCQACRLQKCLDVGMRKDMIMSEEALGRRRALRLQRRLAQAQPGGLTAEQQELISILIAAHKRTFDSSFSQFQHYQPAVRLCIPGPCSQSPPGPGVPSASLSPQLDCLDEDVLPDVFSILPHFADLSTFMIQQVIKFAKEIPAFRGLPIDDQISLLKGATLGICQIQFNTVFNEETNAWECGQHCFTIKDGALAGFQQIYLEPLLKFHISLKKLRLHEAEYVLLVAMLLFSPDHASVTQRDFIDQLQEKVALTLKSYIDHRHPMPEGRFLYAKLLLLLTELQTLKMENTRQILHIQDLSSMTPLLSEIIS
# chicken PXR [4] = target: T4, chicken PXR; experiment: cell-based
# human PXR = target: T5, human PXR (Homo sapiens, UniProt O75469)
# T5 sequence (O75469 1-434): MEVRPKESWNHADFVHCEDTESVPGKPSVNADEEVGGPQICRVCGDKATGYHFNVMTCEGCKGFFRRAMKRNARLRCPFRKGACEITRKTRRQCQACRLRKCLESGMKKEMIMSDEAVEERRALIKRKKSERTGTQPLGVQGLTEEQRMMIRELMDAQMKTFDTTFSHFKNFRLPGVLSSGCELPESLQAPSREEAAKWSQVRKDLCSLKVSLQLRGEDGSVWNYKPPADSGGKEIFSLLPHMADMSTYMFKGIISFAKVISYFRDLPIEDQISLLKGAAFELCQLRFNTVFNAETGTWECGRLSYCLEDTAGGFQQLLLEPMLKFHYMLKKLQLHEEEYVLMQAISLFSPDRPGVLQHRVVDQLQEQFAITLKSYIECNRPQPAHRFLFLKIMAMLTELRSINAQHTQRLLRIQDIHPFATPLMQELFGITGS
# zebrafish PXR [5] = target: T6, zebrafish PXR (Danio rerio, UniProt A5WYG8); conditions: for zfPXR Activity: -log(EC50), EC50 in molar units, activation of zebrafish PXR
# T6 sequence (A5WYG8 144-430): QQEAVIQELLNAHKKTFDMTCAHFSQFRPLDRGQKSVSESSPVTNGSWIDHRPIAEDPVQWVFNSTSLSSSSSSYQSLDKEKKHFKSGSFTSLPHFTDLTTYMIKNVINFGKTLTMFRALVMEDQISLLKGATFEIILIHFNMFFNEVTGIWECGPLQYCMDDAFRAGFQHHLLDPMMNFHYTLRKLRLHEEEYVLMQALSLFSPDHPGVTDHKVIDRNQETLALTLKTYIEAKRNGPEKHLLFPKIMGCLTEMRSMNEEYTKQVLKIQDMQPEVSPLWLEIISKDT
# rabbit PXR [6] = target: T3, rabbit PXR; experiment: PXR activation luciferase reporter assay, rabbit PXR; conditions: -log(EC50), EC50 in molar units
# Ciona VDR/PXR = experiment: Activation of Ciona VDR/PXR (LBD/GAL4 chimeric receptor) luciferase reporter assay; assay type: cell-based, Ciona intestinalis; conditions: screening, reference maximal activator 20 μM 6-formylindolo-[3,2-b]carbazole
# Excerpt: The LBD of Ciona VDR/PXR was cloned from cDNA fragments generously provided by Professors Yuji Kohara and Norituki Satoh, and then inserted into the PM2-GAL4 plasmid to create an LBD/GAL4 chimeric receptor.
# The LBD of Xenopus tropicalis (Western clawed frog) PXR (xtPXR) was cloned by PCR from RNA extracted from ovary of an adult female frog. Ciona VDR/PXR was cloned from cDNA fragments ciem829d05 and cilv048e18 provided by Professor Yuji Kohara (Center for Genetic Resource Information, National Institute of Genetics, Research Organization of Information and Systems, Mishima, Japan) and Professor Noriyuki Satoh (Kyoto University, Kyoto, Japan), with analysis of the cDNA clones supported by Grant-in-aid for Scientific Research on Priority Area "Genome" of Ministry of Education, Culture, Sports, Science and Technology, Japan.
# The creation of a HepG2 (human liver) cell line stably expressing the human Na^+-taurocholate cotransporter (NTCP) has been previously reported. HepG2-NTCP cells were grown in modified Eagle's medium-α containing 10% fetal bovine serum and 1% penicillin/streptomycin (Invitrogen, Carlsbad, CA, USA). Plasmids containing cDNAs for 8 PXRs from 7 species (human, mouse, rat, rabbit, chicken [also called chicken X receptor, CXR], African clawed frog [also termed Xenopus laevis benzoate X receptors α and β, BXRα and BXRβ ], zebrafish), as well as the reporter constructs tk-UAS-Luc and CYP3A4-PXRE-Luc, and 'empty' vectors pCDNA, PsG5, and PM2 were generously provided by SA Kliewer, JT Moore, and LB Moore (GlaxoSmithKline, Research Triangle Park, NC, USA). […] For the full-length expression vectors, the reporter plasmid was CYP3A4-PXRE-Luc, a construct that contains a promoter element from CYP3A4 (recognized by PXR DBDs) driving luciferase expression. For the GAL4/LBD expression constructs, the reporter plasmid was tk-UAS-Luc, which contains GAL4 DNA binding elements driving luciferase expression. The following transfection ratios of reporter, receptor, and β-galactosidase plasmids were used (ng/well): human, mouse, rabbit, and rat PXRs – 25/2.7/20; chicken PXR – 10/1/20; Xenopus tropicalis PXR, zebrafish PXR, and Ciona VDR/PXR – 75/50/20.
# The PXR activation assay was a luciferase-based reporter assay. On day 1, 30,000 cells/well were seeded onto 96-well white opaque plates (Corning-Costar, Corning, NY, USA). On day 2, cells were transfected using the calcium phosphate precipitation method with expression vector or 'empty' control vector and luciferase reporter plasmid. On day 3, the cells were washed and then incubated with medium containing charcoal-dextran treated fetal bovine serum (Hyclone, Logan, UT, USA) and drugs or vehicle. On day 4, the cells were washed and the medium replaced with serum-free medium. […]
# Xenopus tropicalis PXR = experiment: Activation of Xenopus tropicalis PXR (GAL4-LBD chimeric construct) luciferase reporter assay; assay type: cell-based
# Experimental: Cloning of the LBD of this PXR from adult female ovary and expression in a GAL4-LBD chimeric construct allowed for determination of ligand specificity.
# The PXR activation assay was a luciferase-based reporter assay [17, 45]. On day 1, 30,000 cells/well were seeded onto 96-well white opaque plates (Corning-Costar, Corning, NY, USA). On day 2, cells were transfected using the calcium phosphate precipitation method with expression vector or 'empty' control vector and luciferase reporter plasmid. On day 3, the cells were washed and then incubated with medium containing charcoal-dextran treated fetal bovine serum (Hyclone, Logan, UT, USA) and drugs or vehicle. […]
# chicken PXR [7] = target: T4, chicken PXR; experiment: in vitro
# zebrafish PXR [8] = target: T6, zebrafish PXR; experiment: cell-based
# rat PXR [9] = target: T2, rat PXR; experiment: cell-based
# [10] = -log(EC50), EC50 in molar units
structure (smiles),measurement,setting,value
"C[C@H](CCC(=O)O)[C@H]1CC[C@H]2[C@@H]3C[C@@H](O)[C@@H]4C[C@H](O)CC[C@]4(C)[C@H]3CC[C@]12C [BI004, Murideoxycholic acid]",Mouse PXR Activity,mouse PXR,5.09
same,Rat PXR Activity,rat PXR [1],4.80
same,Rabbit PXR Activity,rabbit PXR [2],4.52
same,Chicken PXR Activity,chicken PXR [3],No effect
"C[C@H](CCC(=O)O)[C@H]1CC[C@H]2[C@@H]3[C@H](O)C[C@@H]4C[C@H](O)CC[C@]4(C)[C@H]3CC[C@]12C [BI005, Chenodeoxycholic acid]",Rat PXR Activity,rat PXR [1],No effect
same,"Rabbit PXR efficacy, ε",rabbit PXR [2]; rabbit,4.70 (ε = 0.42)
same,"Chicken PXR efficacy, ε",chicken PXR [3]; chicken,4.70 (ε = 0.36)
same,EC50,chicken PXR [4],20 µM
"C[C@H](CCC(O)C(CO)COS(=O)(=O)O)[C@H]1CC[C@H]2[C@@H]3[C@H](O)C[C@@H]4C[C@H](O)CC[C@]4(C)[C@H]3C[C@H](O)[C@]12C (stereo partly drawn) [BI034, 5β-Cholestan-3α,7α,12α,24,26-pentol-27-sulfate]",hPXR Efficacy,human PXR,0.39
same,zfPXR Efficacy,zebrafish PXR [5],0.13
same,zfPXR Activity,zebrafish PXR [5],4.35
same,Activation of zebrafish PXR (in words),zebrafish PXR [5]; bile salts,activated
same,Toxicity,HepG2 cells,200 µM
same,"Mouse PXR efficacy, ε",mouse PXR,0.85
same,Mouse PXR Activity,mouse PXR; [10],4.44
same,"Rat PXR efficacy, ε",rat PXR [1],0.85
same,Rat PXR Activity,rat PXR [1]; [10],4.40
same,"Rabbit PXR efficacy, ε",rabbit PXR [2],1.93
same,"Chicken PXR efficacy, ε",chicken PXR [3],0.88
same,Chicken PXR Activity,chicken PXR [3],4.37
same,Rabbit PXR Activity,rabbit PXR [6],4.09
"CC(CCC[C@@H](C)[C@H]1CC[C@H]2[C@@H]3[C@H](O)C[C@@H]4C[C@H](O)CC[C@]4(C)[C@H]3C[C@H](O)[C@]12C)C(=O)NCCS(=O)(=O)O (stereo partly drawn) [BI038, 3α,7α,12αtTrihydroxy-5β-cholestan-27-oic acid, taurine conjugated]",hPXR Activity,human PXR,None
same,zfPXR Activity,zebrafish PXR [5],None
same,Toxicity,HepG2 cells,200 µM
same,Mouse PXR Activity,mouse PXR,No effect
same,Rat PXR Activity,rat PXR [1],No effect
same,Rabbit PXR Activity,rabbit PXR [2],No effect
same,Chicken PXR Activity,chicken PXR [3],No effect
"CCCCOC(=O)c1ccc(N)cc1 [MI4, n-Butyl-4-aminobenzoate]",Activation of Ciona VDR/PXR (in words),Ciona VDR/PXR; listed as n-butyl p-aminobenzoate,Weaker activation
same,Activation of Ciona VDR/PXR (in words),Ciona VDR/PXR; listed as n-butyl-p-aminobenzoate,micromolar range
same,Activation of Xenopus tropicalis PXR (in words),Xenopus tropicalis PXR,activates
same,hPXR Efficacy,human PXR; human,1.35
same,zfPXR Efficacy,zebrafish PXR [5]; zebrafish,0.69
same,Toxicity,"HepG2 cells; human, 24 hr",100 µM
same,EC50,chicken PXR [7],> 100 µM
same,EC50,zebrafish PXR [8],13.8 µM
same,EC50,rat PXR [9],> 100 µM
